# In the supplement of paper PMC6045584:
# ± gives the standard deviation of the averaged measurements.
# Key:
# BI-2536 = compound: CC[C@@H]1C(=O)N(C)c2cnc(Nc3ccc(C(=O)NC4CCN(C)CC4)cc3OC)nc2N1C1CCCC1 [BI-2536]; test: surviving fraction relative to DMSO-only wells; higher = less growth inhibition; settings: exposure time: 5 days
# Outline: (§1)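 Continuous five-day exposure to inhibitors at 0.5, 1, 5, 10, 50, 100, 500 and 1000 nM started 24 hours after log-phase tumour cell lines were seeded at 250–500 cells per well in 384-well plates. Luminescence was read after 10 minutes at room temperature. Viability is given as surviving fraction, meaning CellTiter-Glo luminescence normalised to the median of DMSO-only wells.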
# MDV3100 = compound: CNC(=O)c1ccc(N2C(=S)N(c3ccc(C#N)c(C(F)(F)F)c3)C(=O)C2(C)C)cc1F [MDV3100]; test: as above; settings: exposure time: 5 days
# Outline: as §1
Test System,surviving fraction (BI-2536; 0.5 nM),surviving fraction (BI-2536; 1 nM),surviving fraction (BI-2536; 5 nM),surviving fraction (BI-2536; 10 nM),surviving fraction (BI-2536; 50 nM),surviving fraction (BI-2536; 100 nM),surviving fraction (BI-2536; 500 nM),surviving fraction (BI-2536; 1000 nM),surviving fraction (MDV3100; 0.5 nM),surviving fraction (MDV3100; 1 nM),surviving fraction (MDV3100; 5 nM),surviving fraction (MDV3100; 10 nM),surviving fraction (MDV3100; 50 nM),surviving fraction (MDV3100; 100 nM),surviving fraction (MDV3100; 500 nM),surviving fraction (MDV3100; 1000 nM)
ASKA SYNOVIAL,0.962 ± 0.057,0.919 ± 0.066,0.228 ± 0.012,0.231 ± 0.0032,0.256 ± 0.012,0.219 ± 0.012,0.185 ± 0.0081,0.238 ± 0.011,1.01 ± 0.051,0.966 ± 0.037,1.05 ± 0.017,0.59 ± 0.051,1.15 ± 0.13,1.07 ± 0.065,1.14 ± 0.095,0.678 ± 0.079
SJSA1 BONE,1.01 ± 0.067,1.02 ± 0.068,0.882 ± 0.011,0.252 ± 0.033,0.174 ± 0.01,0.191 ± 0.0061,0.267 ± 0.02,0.236 ± 0.015,0.471 ± 0.053,1.27 ± 0.084,1.43 ± 0.11,0.332 ± 0.037,0.0403 ± 0.0031,1.49 ± 0.034,0.0293 ± 0.0025,1.49 ± 0.023
HOSMNG BONE,1.03 ± 0.017,0.955 ± 0.11,0.918 ± 0.055,0.268 ± 0.033,0.047 ± 0.0036,0.046 ± 0.013,0.0673 ± 0.0061,0.0843 ± 0.013,1.02 ± 0.035,1.01 ± 0.023,1.02 ± 0.041,1.05 ± 0.033,1.11 ± 0.054,1.18 ± 0.088,1.15 ± 0.062,1.09 ± 0.032
KPD BONE,0.919 ± 0.06,0.925 ± 0.022,0.79 ± 0.024,0.482 ± 0.016,0.205 ± 0.012,0.197 ± 0.011,0.113 ± 0.0035,0.0597 ± 0.0038,0.955 ± 0.071,0.975 ± 0.023,0.997 ± 0.048,0.985 ± 0.044,1.04 ± 0.058,1.04 ± 0.067,0.977 ± 0.19,0.938 ± 0.015
HS578T BREAST,0.828 ± 0.093,0.73 ± 0.075,0.253 ± 0.013,0.196 ± 0.02,0.131 ± 0.015,0.132 ± 0.025,0.144 ± 0.0045,0.135 ± 0.012,0.974 ± 0.073,1.05 ± 0.041,1.03 ± 0.056,0.979 ± 0.091,1.15 ± 0.096,1.02 ± 0.28,1.01 ± 0.053,0.991 ± 0.085
PCI30 HEADNECK,0.988 ± 0.027,0.689 ± 0.054,0.128 ± 0.015,0.149 ± 0.01,0.286 ± 0.029,0.337 ± 0.02,0.357 ± 0.0049,0.255 ± 0.011,0.908 ± 0.034,0.831 ± 0.075,0.954 ± 0.071,1.01 ± 0.08,1.09 ± 0.056,1 ± 0.014,0.861 ± 0.088,0.945 ± 0.036
SUM159 BREAST,0.968 ± 0.2,0.967 ± 0.19,0.953 ± 0.18,0.864 ± 0.17,0.194 ± 0.035,0.167 ± 0.077,0.131 ± 0.057,0.134 ± 0.05,1.01 ± 0.034,1.005 ± 0.0052,1.01 ± 0.011,0.996 ± 0.01,1.01 ± 0.013,1.014 ± 0.0025,1.02 ± 0.015,0.9937 ± 0.0058
CAL72 BONE,1 ± 0.019,0.742 ± 0.12,0.2 ± 0.021,0.147 ± 0.033,0.12 ± 0.026,0.0987 ± 0.015,0.104 ± 0.019,0.0927 ± 0.009,0.965 ± 0.087,0.992 ± 0.041,1 ± 0.073,1 ± 0.021,1.08 ± 0.076,0.986 ± 0.17,1.05 ± 0.13,1.02 ± 0.15
SUM149 BREAST,1.05 ± 0.054,0.906 ± 0.091,0.122 ± 0.012,0.0487 ± 0.0035,0.0743 ± 0.0057,0.0903 ± 0.014,0.084 ± 0.01,0.0603 ± 0.0065,1.03 ± 0.047,0.922 ± 0.087,0.897 ± 0.038,0.36 ± 0.043,1.07 ± 0.095,0.951 ± 0.021,1.01 ± 0.092,0.546 ± 0.013
HS57T BREAST,1.1 ± 0.045,0.986 ± 0.028,0.216 ± 0.016,0.114 ± 0.011,0.0903 ± 0.0047,0.0937 ± 0.0085,0.156 ± 0.025,0.127 ± 0.009,0.866 ± 0.091,0.918 ± 0.032,0.963 ± 0.033,0.947 ± 0.12,0.847 ± 0.069,0.955 ± 0.043,0.923 ± 0.068,0.912 ± 0.041
U2OS BONE,1.04 ± 0.027,1.05 ± 0.063,0.902 ± 0.023,0.302 ± 0.023,0.215 ± 0.0062,0.199 ± 0.01,0.188 ± 0.0087,0.171 ± 0.013,1.003 ± 0.0095,1.02 ± 0.022,1.01 ± 0.027,1.01 ± 0.018,1.04 ± 0.026,1.03 ± 0.018,1.06 ± 0.033,0.999 ± 0.047
CAL120 BREAST,0.941 ± 0.025,0.431 ± 0.034,0.176 ± 0.0061,0.151 ± 0.013,0.126 ± 0.01,0.113 ± 0.0079,0.0725 ± 0.0027,0.0657 ± 0.0062,0.906 ± 0.066,0.905 ± 0.025,0.931 ± 0.051,0.925 ± 0.077,0.941 ± 0.058,0.935 ± 0.042,0.953 ± 0.059,0.955 ± 0.025
C33A CERVIX,1.12 ± 0.021,1.13 ± 0.085,0.266 ± 0.052,0.073 ± 0.011,0.0473 ± 0.0068,0.036 ± 0.007,0.0303 ± 0.01,0.032 ± 0.015,0.753 ± 0.059,0.772 ± 0.05,0.976 ± 0.063,1.07 ± 0.15,0.983 ± 0.098,1.02 ± 0.05,0.834 ± 0.059,0.868 ± 0.044
CASKI CERVIX,0.739 ± 0.024,0.427 ± 0.068,0.0607 ± 0.011,0.0583 ± 0.0064,0.0967 ± 0.015,0.075,0.0153 ± 0.0021,0.0183 ± 0.00058,0.904 ± 0.031,0.894 ± 0.047,0.99 ± 0.026,0.903 ± 0.059,0.944 ± 0.022,1.08 ± 0.073,0.95 ± 0.046,0.992 ± 0.072
MCF7 BREAST,0.911 ± 0.071,0.913 ± 0.07,0.797 ± 0.074,0.445 ± 0.018,0.408 ± 0.021,0.38 ± 0.022,0.394 ± 0.01,0.319 ± 0.0042,0.84 ± 0.029,0.822 ± 0.031,0.866 ± 0.058,0.767 ± 0.038,0.932 ± 0.03,0.992 ± 0.025,0.97 ± 0.014,0.897 ± 0.028
